Among the data in patent US12649753B2, “Inositol derivative and use thereof” (SHANGHAI SENHUI MEDICINE CO., LTD., priority 2020, dated 2026) are IC50 values, retold here.

The nature of the test: Spectrophotometric pharmacodynamics (PD) assay: inhibition of hydroxyapatite generation in human plasma. Type of test: biochemical. To be noted: human plasma (EDTA-K2), phosphate 1.5 mM and calcium 12.5 mM final, 25° C., slope of absorbance at 550 nm between 6 min and 24 min; read-out: IC50 (Mean ± SD). On the procedure: The inhibition effect of the test compounds on the generation of the human plasma hydroxyapatite (HAP) was determined by the spectrophotometric pharmacodynamics (PD) assay.
1.1 Preparation of Reagents • 1) Human plasma anticoagulated with EDTA-K2. • 2) Mixed solution: disodium hydrogen phosphate 5 mM, calcium chloride 41.67 mM, adjusted to pH 7.4 and filtered through a 0.22 μm filter. • 3) Sodium chloride solution: 0.15 M, adjusted to pH 7.4 and filtered through a 0.22 μm filter.
2.1 Test Procedures • 1) The test compounds were prepared using a 0.15 M sodium chloride solution. • 2) The human plasma sample was reprocessed. A sufficient amount of plasma was taken and centrifuged at room temperature at 10000 g for 30 min for later use. • 3) The plasma was added to a 96 well plate at 75 μL/well. • 4) The candidate drug was added at 5 μL/well. • 5) The mixed solution of disodium hydrogen phosphate and calcium chloride was added at […], with expected final concentrations of 1.5 mM and 12.5 mM, respectively. • 6) The plate was incubated at room temperature (25° C.) on a shaker (750 rpm), and the absorbance at a wavelength of 550 nm was measured every 3 min. • 7) The final reading was set as the slope of the change in absorbance between 6 min and 24 min.

SMILES strings stand for the structures.

`COCCOCCO[C@@H]1C(OP(=O)(O)O)[C@H](OCCOCCOC)[C@@H](OP(=O)(O)O)C(OP(=O)(O)O)[C@H]1OP(=O)(O)O` (stereo partly shown) [INS 3001]: the IC50 (commonly the concentration that inhibits the measured activity by half) was found to be 1.86 ± 0.142 µM.
